Read-outs that look alike come from different tables or passages of the source.
Assays:
AHR [1] = target: T1, AHR (Mus musculus, UniProt P30561); assay: In vitro assay 3: antagonism in mouse cell line (AHR transactivation, firefly luciferase reporter, kynurenic acid prestimulated); format: cell-based
T1 sequence (P30561 1-848 P471L/N533S/M589L): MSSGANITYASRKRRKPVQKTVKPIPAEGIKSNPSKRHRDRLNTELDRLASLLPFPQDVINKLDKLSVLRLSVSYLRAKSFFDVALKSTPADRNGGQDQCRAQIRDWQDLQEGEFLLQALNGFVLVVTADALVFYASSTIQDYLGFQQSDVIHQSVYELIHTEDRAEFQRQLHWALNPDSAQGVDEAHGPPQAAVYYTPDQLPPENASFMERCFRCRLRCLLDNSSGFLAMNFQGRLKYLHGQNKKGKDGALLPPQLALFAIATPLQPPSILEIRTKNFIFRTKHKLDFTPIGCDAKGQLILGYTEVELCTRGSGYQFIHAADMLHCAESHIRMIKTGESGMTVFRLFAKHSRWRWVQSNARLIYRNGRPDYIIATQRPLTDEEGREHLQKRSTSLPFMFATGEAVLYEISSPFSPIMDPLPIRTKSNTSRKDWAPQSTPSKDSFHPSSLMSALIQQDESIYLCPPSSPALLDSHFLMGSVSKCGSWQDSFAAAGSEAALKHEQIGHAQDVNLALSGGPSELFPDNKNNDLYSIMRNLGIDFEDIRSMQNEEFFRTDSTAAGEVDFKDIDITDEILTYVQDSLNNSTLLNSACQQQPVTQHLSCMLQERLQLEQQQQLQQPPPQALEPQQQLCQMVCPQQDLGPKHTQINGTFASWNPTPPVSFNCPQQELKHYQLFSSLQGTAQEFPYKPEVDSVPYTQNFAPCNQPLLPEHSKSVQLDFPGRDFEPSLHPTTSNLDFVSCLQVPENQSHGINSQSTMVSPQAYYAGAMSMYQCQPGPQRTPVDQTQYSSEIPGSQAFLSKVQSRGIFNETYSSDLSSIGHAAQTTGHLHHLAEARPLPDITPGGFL
Outline: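 Kynurenic acid-prestimulated mouse reporter cells; stable AHR-inducible firefly luc construct with DRE sites in promoter. No-agonist wells = positive inhibition ctrl. Luminescence normalized to pos/neg ctrls; n>1 reported as mean or median.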

AHR [2] = target: T2, AHR (Homo sapiens, UniProt P35869); assay: In vitro assay 1: antagonism in human cell line (AHR transactivation, firefly luciferase reporter, kynurenic acid prestimulated); format: cell-based; conditions: AHR Antagonism Human IC50 [M]
T2 construct: U87 MG glioblastoma cells (ATCC #HTB-14) endogenously expressing AHR; endogenous in cells; host or cells: U87 MG glioblastoma cells (ATCC #HTB-14)
T2 sequence (P35869 11-848): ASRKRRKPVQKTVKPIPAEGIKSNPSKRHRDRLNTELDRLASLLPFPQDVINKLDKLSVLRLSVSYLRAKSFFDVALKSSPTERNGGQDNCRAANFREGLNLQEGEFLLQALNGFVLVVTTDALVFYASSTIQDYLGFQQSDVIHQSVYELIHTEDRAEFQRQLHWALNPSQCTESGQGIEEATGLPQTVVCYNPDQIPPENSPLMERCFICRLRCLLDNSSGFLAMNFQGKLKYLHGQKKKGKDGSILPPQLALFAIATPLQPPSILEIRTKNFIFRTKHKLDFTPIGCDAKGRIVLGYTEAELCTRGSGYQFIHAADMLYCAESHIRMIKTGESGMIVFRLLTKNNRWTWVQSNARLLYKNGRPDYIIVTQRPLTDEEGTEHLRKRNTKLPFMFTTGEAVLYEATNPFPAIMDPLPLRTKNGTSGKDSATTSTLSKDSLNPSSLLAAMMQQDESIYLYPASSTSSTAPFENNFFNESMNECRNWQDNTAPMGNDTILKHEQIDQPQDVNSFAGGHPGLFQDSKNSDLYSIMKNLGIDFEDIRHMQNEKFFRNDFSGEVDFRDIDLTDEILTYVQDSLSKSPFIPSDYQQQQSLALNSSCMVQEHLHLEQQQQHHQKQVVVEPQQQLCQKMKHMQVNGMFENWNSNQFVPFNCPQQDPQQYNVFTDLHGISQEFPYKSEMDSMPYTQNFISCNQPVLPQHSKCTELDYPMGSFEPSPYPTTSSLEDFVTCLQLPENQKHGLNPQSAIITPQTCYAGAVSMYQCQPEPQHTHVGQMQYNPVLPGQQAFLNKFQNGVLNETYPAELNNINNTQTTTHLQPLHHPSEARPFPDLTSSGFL
Outline: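 Antagonism is measured against kynurenic acid prestimulation in U87 MG glioblastoma cells carrying stable DRE-luciferase and Renilla reporters. Positive inhibition control: 150 μM kynurenic acid with 5 μM staurosporine. Values are normalized to controls; repeats are averaged or given as medians.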

[3] = mouse Hepa 1c1c7 cells, 200 μM kynurenic acid, 20 hours, read-out: AHR Antagonism Mouse IC50
[4] = read-out: AHR Antagonism Mouse IC50, mouse Hepa 1c1c7 cells, 200 μM kynurenic acid, 20 hours

Compound | IC50 (AHR [1]; [3]) [nM] | IC50 (AHR [2]) [M] | IC50 (AHR [1]; [4]) [nM]
O=C1NCCCCCC1Nc1nc2ccccc2c2nc(-c3cccc(OC(F)(F)F)c3)nn12 (stereo not shown) [Example 447, 3-({2-[3-(trifluoromethoxy)phenyl][1,2,4]triazolo[1,5-c]quinazolin-5-yl}amino)azocan-2-one] | 11.3 | 2.27e-08 | 
CSc1cccc(-c2nc3c4ccccc4nc(N[C@@H]4CCCCNC4=O)n3n2)c1 [Example 449, (3R)-3-({2-[3-(methylsulfanyl)phenyl][1,2,4]triazolo[1,5-c]quinazolin-5-yl}amino)azepan-2-one] | 21 | 1.73e-08 | 
CC[C@H](Nc1nc2ccccc2c2nc(-c3ccccc3S(C)(=O)=O)nn12)C(N)=O [Example 450, (2S)-2-({2-[2-(methanesulfonyl)phenyl][1,2,4]triazolo[1,5-c]quinazolin-5-yl}amino)butanamide] | 8570 | > 2e-05 | 
CC[C@@H](Nc1nc2ccccc2c2nc(-c3ccccc3S(C)(=O)=O)nn12)C(N)=O [Example 451, (2R)-2-({2-[2-(methanesulfonyl)phenyl][1,2,4]triazolo[1,5-c]quinazolin-5-yl}amino)butanamide] | 131 | 7.16e-06 | 
O=C1NCCCC[C@@H]1Nc1nc2ccccc2c2nc(-c3ccccc3OC(F)(F)F)nn12 [Example 457, (3S)-3-({2-[2-(trifluoromethoxy)phenyl][1,2,4]triazolo[1,5-c]quinazolin-5-yl}amino)azepan-2-one] | 78.3 | 9.89e-07 | 
O=C1NCCC[C@H]1Nc1nc2ccccc2c2nc(-c3ccccc3OC(F)(F)F)nn12 [Example 458, (3R)-3-({2-[2-(trifluoromethoxy)phenyl][1,2,4]triazolo[1,5-c]quinazolin-5-yl}amino)piperidin-2-one] | 28 | 6.37e-08 | 
O=C1NCC[C@H]1Nc1nc2ccccc2c2nc(-c3ccccc3OC(F)(F)F)nn12 [Example 459, (3R)-3-({2-[2-(trifluoromethoxy)phenyl][1,2,4]triazolo[1,5-c]quinazolin-5-yl}amino)pyrrolidin-2-one] | 30.2 | 7.9e-08 | 
CCCCNC(=O)CNc1nc2ccccc2c2nc(-c3ccccc3OC(F)(F)F)nn12 [Example 466, N-butyl-N^2-{2-[2-(trifluoromethoxy)phenyl][1,2,4]triazolo[1,5-c]quinazolin-5-yl}glycinamide] | 107 | 1.26e-07 | 
NC(=O)[C@@H](CO)Nc1nc2ccccc2c2nc(-c3ccccc3OC(F)(F)F)nn12 [Example 468, N^2-{2-[2-(trifluoromethoxy)phenyl][1,2,4]triazolo[1,5-c]quinazolin-5-yl}-D-serinamide] | 42.7 | 6.73e-08 | 
O=C1NCCC[C@H]1Nc1nc2ccccc2c2nc(-c3ccccc3OC(F)F)nn12 [Example 472, (3R)-3-({2-[2-(difluoromethoxy)phenyl][1,2,4]triazolo[1,5-c]quinazolin-5-yl}amino)piperidin-2-one] | 38.1 | 3.72e-08 | 
O=C1NCC[C@H]1Nc1nc2ccccc2c2nc(-c3ccccc3OC(F)F)nn12 [Example 473, (3R)-3-({2-[2-(difluoromethoxy)phenyl][1,2,4]triazolo[1,5-c]quinazolin-5-yl}amino)pyrrolidine-2-one] | 17.9 | 5.1e-08 | 
CC[C@H](Nc1nc2ccccc2c2nc(-c3ccccc3OC(F)F)nn12)C(N)=O [Example 475, (2S)-2-({2-[2-(difluoromethoxy)phenyl][1,2,4]triazolo[1,5-c]quinazolin-5-yl}amino)butanamaide] |  | > 2e-05 | 71.7
CC[C@@H](Nc1nc2ccccc2c2nc(-c3ccccc3OC(F)F)nn12)C(N)=O [Example 476, (2R)-2-({2-[2-(difluoromethoxy)phenyl][1,2,4]triazolo[1,5-c]quinazolin-5-yl}amino)butanamide] |  | 3.93e-09 | 0.554

The remaining molecules from weak to strong by IC50 (AHR [1]; [3]), led by results:

IC50 (AHR [1]; [3]) [nM] | IC50 (AHR [2]) [M] | Compound | IC50 (AHR [1]; [4]) [nM]
5.26 | 5.6e-08 | O=C1NCCCC[C@@H]1Nc1nc2ccccc2c2nc(-c3ccccc3OC(F)F)nn12 [Example 471, (3S)-3-({2-[2-(difluoromethoxy)phenyl][1,2,4]triazolo[1,5-c]quinazolin-5-yl}amino)azepan-2-one] | 
3.91 | 5.89e-08 | CCC[C@@H](Nc1nc2ccccc2c2nc(-c3ccccc3OC(F)(F)F)nn12)C(=O)NC [Example 464, N-methyl-N^2-{2-[2-(trifluoromethoxy)phenyl][1,2,4]triazolo[1,5-c]quinazolin-5-yl}-D-norvalinamide] | 
3.87 | 1.34e-08 | CCCNC(=O)[C@@H](C)Nc1nc2ccccc2c2nc(-c3ccccc3OC(F)(F)F)nn12 [Example 465, N-propyl-N^2-{2-[2-(trifluoromethoxy)phenyl][1,2,4]triazolo[1,5-c]quinazolin-5-yl}-D-alaninamide] | 
3.56 | 2.98e-09 | O=C1NCCCC[C@H]1Nc1nc2ccccc2c2nc(-c3ccccc3OC(F)(F)F)nn12 [Example 456, (3R)-3-({2-[2-(trifluoromethoxy)phenyl][1,2,4]triazolo[1,5-c]quinazolin-5-yl}amino)azepan-2-one] | 
3.35 | 3.98e-09 | O=C1NCCCC[C@H]1Nc1nc2ccccc2c2nc(-c3ccccc3Br)nn12 [Example 452, (3R)-3-{[2-(2-bromophenyl)[1,2,4]triazolo[1,5-c]quinazolin-5-yl]amino}azepan-2-one] | 
1.95 | 6.18e-09 | O=C1NCCCCCC1Nc1nc2ccccc2c2nc(-c3ccccc3OC(F)(F)F)nn12 (stereo not shown) [Example 461, 3-({2-[2-(trifluoromethoxy)phenyl][1,2,4]triazolo[1,5-c]quinazolin-5-yl}amino)azocan-2-one] | 
1.88 | 2.94e-08 | CCNC(=O)C(CC)Nc1nc2ccccc2c2nc(-c3ccccc3OC(F)(F)F)nn12 (stereo not shown) [Example 463, N-ethyl-2-({2-[2-(trifluoromethoxy)phenyl][1,2,4]triazolo[1,5-c]quinazolin-5-yl}amino)butanamide] | 
1.37 | 3.11e-09 | O=C1NCCCCCC1Nc1nc2ccccc2c2nc(-c3ccccc3OC(F)F)nn12 (stereo not shown) [Example 474, 3-({2-[2-(difluoromethoxy)phenyl][1,2,4]triazolo[1,5-c]quinazolin-5-yl}amino)azocan-2-one] | 
1.2 | 1.64e-08 | CC[C@@H](Nc1nc2ccccc2c2nc(-c3ccccc3OC(F)(F)F)nn12)C(N)=O [Example 469, (2R)-2-({2-[2-(trifluoromethoxy)phenyl][1,2,4]triazolo[1,5-c]quinazolin-5-yl}amino)butanamide] | 
0.5 | 1.34e-09 | O=C1NCCCC[C@H]1Nc1nc2ccccc2c2nc(-c3ccccc3OC(F)F)nn12 [Example 470, (3R)-3-({2-[2-(difluoromethoxy)phenyl][1,2,4]triazolo[1,5-c]quinazolin-5-yl}amino)azepan-2-one] | 

Source: patent publication US20230113037A1 (Bayer Aktiengesellschaft, priority 2019, published 2023)
